The source of these data is patent publication US12428415B2, “Matriptase 2 inhibitors and uses thereof” (Disc Medicine, Inc., priority 2018, dated 2025).

The target of this test is T1, Human Recombinant Matriptase 2 (Homo sapiens, UniProt Q8IU80).
T1 construct: purchased Enzo Life Sciences (an in-house preparation was also used) ALX-201-752-1
T1 sequence (Q8IU80 1-811): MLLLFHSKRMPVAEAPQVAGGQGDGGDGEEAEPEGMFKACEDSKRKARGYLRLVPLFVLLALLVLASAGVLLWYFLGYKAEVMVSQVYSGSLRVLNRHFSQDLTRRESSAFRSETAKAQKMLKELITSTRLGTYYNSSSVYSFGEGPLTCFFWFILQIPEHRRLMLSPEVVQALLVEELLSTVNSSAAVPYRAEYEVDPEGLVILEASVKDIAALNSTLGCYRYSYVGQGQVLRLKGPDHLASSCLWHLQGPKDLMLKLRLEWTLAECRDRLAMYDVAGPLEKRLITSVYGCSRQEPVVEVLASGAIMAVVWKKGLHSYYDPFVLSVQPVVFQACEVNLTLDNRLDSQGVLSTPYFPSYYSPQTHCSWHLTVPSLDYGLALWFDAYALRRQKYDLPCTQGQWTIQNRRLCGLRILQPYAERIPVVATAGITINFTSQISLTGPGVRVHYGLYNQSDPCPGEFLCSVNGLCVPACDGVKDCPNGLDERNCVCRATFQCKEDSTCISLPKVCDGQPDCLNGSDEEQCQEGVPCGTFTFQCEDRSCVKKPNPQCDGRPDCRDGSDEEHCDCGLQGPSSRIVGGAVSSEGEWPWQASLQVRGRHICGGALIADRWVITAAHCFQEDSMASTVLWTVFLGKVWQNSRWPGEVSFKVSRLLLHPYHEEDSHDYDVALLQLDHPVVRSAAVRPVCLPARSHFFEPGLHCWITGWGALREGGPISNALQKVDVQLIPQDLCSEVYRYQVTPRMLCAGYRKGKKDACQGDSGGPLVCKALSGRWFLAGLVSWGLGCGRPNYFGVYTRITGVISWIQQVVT
The test can be described thus: Matriptase 2 fluorescence based inhibition assay, Method B (50 mM TRIS pH 7.5, 150 mM NaCl, 0.01% gelatin). It is filed as biochemical. The following applies: 1 uM compound, Assay Used = B; for inhibition at 1 µM: read-out: Mar-2 % inhibition at 1 uM. The procedure: Test compounds were evaluated for their potential to inhibit Human Recombinant Matriptase 2 (in-house and commercial protein from Enzo Life Sciences—cat log -ALX-201-752-1) using fluorescence based assay. The concentration of Recombinant Matriptase 2 and the substrate used in the assay was: 7 nM (commercial) and 15 nM (Inhouse Matriptase 2) and 100 μM (Boc-Gln-Ala-Arg-7-amido-4-methyl coumarin hydrobromide—Cat log: B4153-Sigma and I-1550 from Bachem) respectively. The assay buffer used was 50 mM TRIS pH 7.5, 150 mM NaCl, 0.01% gelatin (G1393 Sigma). The assay was performed using 384 well black flat bottom plate from grenier (Cat log: 781076) at 25° C. The enzyme and compound preincubated for 30 mins, plate was read 60 mins after substrate addition at wavelength Ex: 360/Em:480 nm. The final assay volume of was 20 μl. Stock solution of compounds were initially prepared in DMSO and appropriate dilutions were made for screening and IC50 determination (final DMSO conc in the assay was 1%). All the measurements were carried out using the Spectramax M5, Molecular devices. The compounds were screened at 1 and 10 μM concentration and IC50 was determined for the interested compounds.
To determine IC50 values, dose response curves were generated by plotting percentage inhibition as a function of inhibitor concentration and the data was fitted to sigmoidal non-linear regression equation (variable slope) using Graph Pad prism software V7.

For `N=C(N)c1ccc2cc(C(=O)O[C@H]3CC[C@H](N)CC3)n(Cc3cccc4ccccc34)c2c1` [Compound I-485, (1r,4r)-4-aminocyclohexyl 6-carbamimidoyl-1-(naphthalen-1-ylmethyl)-1H-indole-2-carboxylate], the inhibition at 1 µM was in the range of 75 to 100%. For `COC(=O)c1cc2ccc(C(=N)N)cc2n1Cc1cccc2ccccc12` [Compound I-486, Methyl 6-carbamimidoyl-1-(naphthalen-1-ylmethyl)-1H-indole-2-carboxylate], the inhibition at 1 µM fell in the range of 25 to 50%. The same measure, in the same setting: the same measure for `N=C(N)c1ccc2cc(CO)n(Cc3cccc4ccccc34)c2c1` [Compound I-487, 2-(hydroxymethyl)-1-(naphthalen-1-ylmethyl)-1H-indole-6-carboximidamide]: 50 to 75%. For `N=C(N)c1ccc2cc(C(=O)O)n(-c3ccc4ccccc4c3)c2c1` [Compound I-488, 6-carbamimidoyl-1-(naphthalen-2-yl)-1H-indole-2-carboxylic Acid], the “Mar-2 % inhibition at 1 uM” value is “A (A represents 0%≤I≤25%)”. Take `N=C(N)c1ccc2cc(C(=O)O)n(-c3cccc4ccccc34)c2c1` [Compound I-489]: the inhibition at 1 µM lay in the range of 0 to 25%. For `N=C(N)c1ccc2cc(C(=O)NCC3CCNCC3)n(-c3ccc4ccccc4c3)c2c1` [Compound I-490, 6-carbamimidoyl-1-(naphthalen-2-yl)-N-(piperidin-4-ylmethyl)-1H-indole-2-carboxamide], the inhibition at 1 µM was in the range of 50 to 75%. With `N=C(N)c1ccc2cc(C(=O)N[C@H]3CC[C@@H](N)CC3)n(-c3ccc4ccccc4c3)c2c1` [Compound I-491], the inhibition at 1 µM lay within 50 to 75%. Regarding `CC(C)(C)OC(=O)NC(=N)c1ccc2cc(C(=O)NCC3CCN(C(=O)OC(C)(C)C)CC3)n(Cc3cccc4ccccc34)c2c1` [Compound I-492, tert-butyl4-((6-(N-(tert-butoxycarbonyl)carbamimidoyl)-1-(naphthalen-1-ylmethyl)-1H-indole-2-carboxamido)methyl)piperidine-1-carboxylate], the inhibition at 1 µM lay in the range of 25 to 50%.

As to `CC(C)(C)OC(=O)NC(=N)c1ccc2cc(C(=O)NC3CCC(NC(=O)OC(C)(C)C)CC3)n(Cc3cccc(Cl)c3Cl)c2c1` (stereo not drawn) [Compound I-493], the inhibition at 1 µM lay in the range of 0 to 25%.

As for `CC(C)(C)OC(=O)NC(=N)c1ccc2cc(C(=O)N[C@H]3CC[C@H](NC(=O)OC(C)(C)C)CC3)n(Cc3ccnc4ccccc34)c2c1` [Compound I-494], the inhibition at 1 µM was 0 to 25%. Regarding `CC(C)(C)OC(=O)NC(=N)c1ccc2cc(C(=O)N[C@H]3CC[C@H](NC(=O)OC(C)(C)C)CC3)n(Cc3ccc(C(N)=O)cc3)c2c1` [Compound I-495], the inhibition at 1 µM lay in the range of 0 to 25%. Consider `N=C(N)c1ccc2cc(C(=O)NCC3CCNCC3)[nH]c2c1` [Compound I-496, 6-carbamimidoyl-N-(piperidin-4-ylmethyl)-1H-indole-2-carboxamide], for which the inhibition at 1 µM is 0 to 25%. Turning to `N=C(N)c1ccc2cc(C(=O)NCC3CCNCC3)n(Cc3cccc4ccccc34)c2c1` [Compound I-497, 6-carbamimidoyl-1-(naphthalen-1-ylmethyl)-N-(piperidin-4-ylmethyl)-1H-indole-2-carboxamide], the inhibition at 1 µM is 75 to 100%. On the same count and under the same terms, for `N=C(N)c1ccc2cc(C(=O)N[C@H]3CC[C@H](N)CC3)n(Cc3cccc(Cl)c3Cl)c2c1` [Compound I-498] the value was 25 to 50%; for `N=C(N)c1ccc2cc(C(=O)N[C@H]3CC[C@H](N)CC3)n(Cc3ccnc4ccccc34)c2c1` [Compound I-499], 50 to 75%; for `N=C(N)c1ccc2cc(C(=O)N[C@H]3CC[C@H](N)CC3)n(Cc3ccc(C(N)=O)cc3)c2c1` [Compound I-500], 25 to 50%. Regarding `N=C(N)c1ccc2cc(C(=O)N[C@H]3CC[C@H](N)CC3)n(CCS(=O)(=O)c3cccc4ccccc34)c2c1` [Compound I-501], the inhibition at 1 µM is 0 to 25%. Regarding `N=C(N)c1ccc2cc(C(=O)N[C@H]3CC[C@H](N)CC3)n(C(C(=O)O)c3cccc4ccccc34)c2c1` (stereo partly drawn) [Compound I-502], the inhibition at 1 µM is 0 to 25%. In the case of `N=C(N)c1ccc2cc(C(=O)N[C@H]3CC[C@H](N)CC3)n(Cc3c(Cl)cccc3Cl)c2c1` [Compound I-503], the inhibition at 1 µM lay in the range of 0 to 25%. Consider `N=C(N)c1ccc2cc(C(=O)N[C@H]3CC[C@H](N)CC3)n(Cc3cccc4cnccc34)c2c1` [Compound I-504], for which the inhibition at 1 µM was 50 to 75%.

In the case of `N=C(N)c1ccc2cc(C(=O)N[C@H]3CC[C@H](N)CC3)n(Cc3cc(Cl)cc(Cl)c3)c2c1` [Compound I-505], the inhibition at 1 µM is 25 to 50%. Regarding `COc1ccc2c(Cn3c(C(=O)N[C@H]4CC[C@H](N)CC4)cc4ccc(C(=N)N)cc43)cccc2c1` [Compound I-506], the inhibition at 1 µM is 75 to 100%. With `N=C(N)c1ccc2cc(C(=O)N[C@H]3CC[C@H](N)CC3)n(Cc3cncc4ccccc34)c2c1` [Compound I-507], the inhibition at 1 µM was in the range of 50 to 75%. With `N=C(N)c1ccc2cc(C(=O)N[C@H]3CC[C@H](N)CC3)n(Cc3ccc(C(=O)O)c4ccccc34)c2c1` [Compound I-508], the inhibition at 1 µM was in the range of 25 to 50%.

Regarding `N=C(N)c1ccc2cc(C(=O)N[C@H]3CC[C@H](N)CC3)n(Cc3ccc(C(N)=O)c4ccccc34)c2c1` [Compound I-509], the inhibition at 1 µM lay within 50 to 75%. For `N=C(N)c1ccc2cc(C(=O)N[C@H]3CC[C@H](N)CC3)n(Cc3ccccc3-c3ccccc3)c2c1` [Compound I-510], the inhibition at 1 µM lay in the range of 0 to 25%.

For `N=C(N)c1ccc2c(N)c(C(=O)N[C@H]3CC[C@H](N)CC3)n(Cc3cccc4ccccc34)c2c1` [Compound I-511, 3-amino-N-((1r,4r)-4-aminocyclohexyl)-6-carbamimidoyl-1-(naphthalen-1-ylmethyl)-1H-indole-2-carboxamide], the inhibition at 1 µM lay in the range of 75 to 100%. Same read-out and setting: for `N=C(N)c1ccc2c(C(=O)O)c(C(=O)N[C@H]3CC[C@H](N)CC3)n(Cc3cccc4ccccc34)c2c1` [Compound I-512, 2-(((1r,4r)-4-aminocyclohexyl)carbamoyl)-6-carbamimidoyl-1-(naphthalen-1-ylmethyl)-1H-indole-3-carboxylic Acid] the value was 50 to 75%; for `N=C(N)c1ccc2c(C(N)=O)c(C(=O)N[C@H]3CC[C@H](N)CC3)n(Cc3cccc4ccccc34)c2c1` [Compound I-513, N2-((1r,4r)-4-aminocyclohexyl)-6-carbamimidoyl-1-(naphthalen-1-ylmethyl)-1H-indole-2,3-dicarboxamide], 25 to 50%. In the case of `N#Cc1c(C(=O)N[C@H]2CC[C@H](N)CC2)n(Cc2cccc3ccccc23)c2cc(C(=N)N)ccc12` [Compound I-514, N-((1r,4r)-4-aminocyclohexyl)-6-carbamimidoyl-3-cyano-1-(naphthalen-1-ylmethyl)-1H-indole-2-carboxamide], the inhibition at 1 µM was 0 to 25%. Still for that read-out and setting: for `N=C(N)c1ccc2c(C=O)c(C(=O)N[C@H]3CC[C@H](N)CC3)n(Cc3cccc4ccccc34)c2c1` [Compound I-515, N-((1r,4r)-4-aminocyclohexyl)-6-carbamimidoyl-3-formyl-1-(naphthalen-1-ylmethyl)-1H-indole-2-carboxamide] the value was 25 to 50%. Consider `N=C(N)c1ccc2c(CO)c(C(=O)N[C@H]3CC[C@H](N)CC3)n(Cc3cccc4ccccc34)c2c1` [Compound I-516, N-((1r,4r)-4-aminocyclohexyl)-6-carbamimidoyl-3-(hydroxymethyl)-1-(naphthalen-1-ylmethyl)-1H-indole-2-carboxamide], for which the inhibition at 1 µM was 0 to 25%. Regarding `COCc1c(C(=O)N[C@H]2CC[C@H](N)CC2)n(Cc2cccc3ccccc23)c2cc(C(=N)N)ccc12` [Compound I-517, N-((1r,4r)-4-aminocyclohexyl)-6-carbamimidoyl-3-(methoxymethyl)-1-(naphthalen-1-ylmethyl)-1H-indole-2-carboxamide], the inhibition at 1 µM was in the range of 50 to 75%.

Broadly, the inhibition is the percentage by which the read-out fell short of the control.
